{
  "source": "paper PMC11377810",
  "about": "“A Gaussia luciferase reporter assay for the evaluation of coronavirus Nsp5/3CLpro activity” (Scientific Reports, 2024)",
  "key": {"HEK293T reporter cells [1]": {"test_system": "HEK293T reporter cells", "assay": "MTT assay of cell metabolic activity of reporter cells", "settings": "at the active concentrations ≥ 20 µM, Fig. 4c"}, "SARS-CoV-2 Nsp5 [2]": {"target": "T1, SARS-CoV-2 Nsp5 (Severe acute respiratory syndrome coronavirus 2, UniProt P0DTD1)", "assay": "cell-based"}, "COVID-19": {"test_system": "COVID-19", "settings": "cited from earlier work"}, "SARS-CoV-2 Nsp5 [3]": {"target": "T1, SARS-CoV-2 Nsp5"}, "HEK293T reporter cells [4]": {"test_system": "HEK293T reporter cells"}, "[5]": {"settings": "in vivo, cited from earlier work"}},
  "data": [
    {"smiles": "Cc1cccc(C)c1OCC(=O)N[C@@H](Cc1ccccc1)[C@@H](O)C[C@H](Cc1ccccc1)NC(=O)[C@H](C(C)C)N1CCCNC1=O", "note": "[Lopinavir]", "values": [
      {"measurement": "cytotoxicity (MTT)", "setting": "HEK293T reporter cells [1]", "value": "cytotoxic at all of the tested active concentrations"},
      {"measurement": "IC50", "setting": "SARS-CoV-2 Nsp5 [2]; IC50, inhibition of Nsp5 reporter (Gaussia luciferase) activity", "value": 21, "unit": "µM"},
      {"measurement": "IC50", "setting": "SARS-CoV-2 Nsp5 [2]; IC50, inhibition of Nsp5 reporter activity, re-evaluated at lower nontoxic concentrations, additional concentrations, 8–64 µM range (Fig. 4e)", "value": 12, "unit": "µM"},
      {"measurement": "benefit in the treatment of COVID-19", "setting": "COVID-19; COVID-19 patients, clinical trials", "value": "little to no benefit"},
      {"measurement": "benefit in COVID-19 patients", "setting": "COVID-19; multiple clinical trials", "value": "no significant benefit"},
      {"measurement": "concentrations that significantly decreased the Gaussia luciferase signal (lowest significantly active dose)", "setting": "SARS-CoV-2 Nsp5 [3]", "value": "≥ 20", "unit": "µM"},
      {"measurement": "effective and non-cytotoxic concentration range", "setting": "SARS-CoV-2 Nsp5 [3]", "value": "8 to 64", "unit": "µM"}
    ]},
    {"smiles": "COc1cccc2[nH]c(C(=O)N[C@@H](CC(C)C)C(=O)N[C@@H](C[C@@H]3CCNC3=O)C(=O)CO)cc12", "note": "[PF-00835231]", "values": [
      {"measurement": "non-cytotoxic concentrations", "setting": "HEK293T reporter cells [4]", "value": "≤ 50", "unit": "µM"}
    ]},
    {"smiles": "COc1cccc2[nH]c(C(=O)N[C@@H](CC(C)C)C(=O)N[C@@H](C[C@@H]3CCNC3=O)C(=O)COP(=O)(O)O)cc12", "note": "[Lufotrelvir]", "values": [
      {"measurement": "oral bioavailability", "setting": "[5]; po", "value": "low"},
      {"measurement": "systemic clearance", "setting": "[5]", "value": "fast"}
    ]}
  ]
}
